Assay results taken from patent publication US11976075B2, “Inhibitors of the MYST family of lysine acetyl transferases” (Isosterix, Inc., priority 2022, dated 2024).
Read-outs that look alike come from different tables or passages of the source.

Assays:
[1] = molecular target: T1, Recombinant KAT6A/MOZ (488-778) protein (Homo sapiens, UniProt Q92794); experiment: Kat6a AlphaLISA Inhibition Screening Assay; type: biochemical
T1 construct: Recombinant KAT6A/MOZ (488-778) protein (Active motif, Catalog #81223); purchased Active Motif 81223
T1 sequence (Q92794 488-778): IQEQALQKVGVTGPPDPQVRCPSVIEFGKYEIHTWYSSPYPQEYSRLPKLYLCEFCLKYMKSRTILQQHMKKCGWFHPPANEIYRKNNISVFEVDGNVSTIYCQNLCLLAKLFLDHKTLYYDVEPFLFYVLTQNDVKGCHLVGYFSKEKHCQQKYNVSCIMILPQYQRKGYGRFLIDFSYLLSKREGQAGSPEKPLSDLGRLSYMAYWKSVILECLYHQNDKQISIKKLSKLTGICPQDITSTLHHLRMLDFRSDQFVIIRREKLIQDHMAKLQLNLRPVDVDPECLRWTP
Summary of the method: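 Recombinant KAT6A (488-778), 25 nM, was preincubated with compound (10-point dose response) for 60 or 10 min. It then reacted 120 min at room temperature with 200 nM biotin-H3(1-21) peptide and 400 nM acetyl-CoA, pH 8.0, with 330 nM TSA present. Acetylation was detected by AlphaLISA (anti-acetyl-lysine acceptor, streptavidin donor beads).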

ZR-75-1 = experiment: In Vitro Cancer Cell Assay (cell viability, Cell Titer Glow, 10 days); type: cell-based; details: Homo sapiens; ZR-75-1 cells; Table 2
Method: ZR-75-1 and T47D are breast cancer cell lines containing high KAT6A protein expression. Proliferation of these cell lines are inhibited upon treatment with a KAT6A inhibitor. Cell line MCF7 is used as a negative control. MCF7 cells have a low KAT6A protein expression and are not growth inhibited upon treatment with KAT6A inhibitors. WM-1119 is used as a positive control.
1500 cells are seeded per well and incubated overnight at 37° C. and 5% CO2. Cells are treated after 24 hours with a compound (stock solution, 10 mM in DMSO) with 9-10 dilutions and a final DMSO concentration of 0.5%. […] Test compounds are tested like WM-1119. Plates are incubated at 37° C. and 5% CO2 for 10 days. Media is replenished after every alternate day. At day 10, Cell Titer Glow is added to the wells and luminescence is recorded after 10 min incubation. Data are normalized to 100% with DMSO control and subtracting media blank. Cell viability is of the test compounds is measured.
The above procedure can be followed for determining activity in additional cell lines, for example, ZR-75-1, T47D, CHAGOK1 and other cell lines that have high expression of KAT6A. The number of cells used will be optimized based on growth rate of the individual cell lines.

[2] = 60′ pre-incubation, Table 2, read-out: Kat6A biochemical assay: IC50
[3] = 60′ pre-incubation, Table 3, read-out: Kat6A Biochemical assay: IC50

Row | Compound | IC50 [1, 2] [µM] | EC50 (ZR-75-1) [µM] | IC50 [1, 3] [µM] | IC50 ([1]; 10′ pre-incubation, Table 3, read-out: Kat6A Biochemical assay: IC50) [µM]
1 | C#CC(=O)N1Cc2cn(Cc3cc(OC)c4c(NS(=O)(=O)c5c(OC)cccc5OC)noc4c3)nc2C1 [Synthetic Example 25B, 2,6-dimethoxy-N-(4-methoxy-6-((5-propioloyl-5,6-dihydropyrrolo[3,4-c]pyrazol-2(4H)-yl)methyl)benzo[d]isoxazol-3-yl)benzenesulfonamide] | ≤ 10 | > 10 |  | 
2 | C=CS(=O)(=O)NCc1cnn(Cc2cc(OC)c3c(NS(=O)(=O)c4ccccc4OC)noc3c2)c1 [Synthetic Example 32, 2-methoxy-N-(4-methoxy-6-((4-(vinylsulfonamidomethyl)-1H-pyrazol-1-yl)methyl)benzo[d]isoxazol-3-yl)benzenesulfonamide] | ≤ 10 | ≤ 10 |  | 
3 | C=CS(=O)(=O)NCc1cnn(Cc2cc(OC)c3c(NS(=O)(=O)c4c(OC)cccc4OC)noc3c2)c1 [Synthetic Example 33, 2,6-dimethoxy-N-(4-methoxy-6-((4-(vinylsulfonamidomethyl)-1H-pyrazol-1-yl)methyl)benzo[d]isoxazol-3-yl)benzenesulfonamide] | ≤ 10 | ≤ 10 |  | 
4 | C#CC(=O)NCc1cnn(Cc2cc(OC3CC3)c3c(NS(=O)(=O)c4ccccc4OC)noc3c2)c1 [Synthetic Example 43, N-((1-((4-cyclopropoxy-3-((2-methoxyphenyl)sulfonamido)benzo[d]isoxazol-6-yl)methyl)-1H-pyrazol-4-yl)methyl)propiolamide] | ≤ 10 | ≤ 10 |  | 
5 | C#CC(=O)NCc1cnn(Cc2cc(OC)c3c(NS(=O)(=O)c4ccccc4OC)noc3c2)c1 [Synthetic Example 31, N-((1-((4-methoxy-3-((2-methoxyphenyl)sulfonamido)benzo[d]isoxazol-6-yl)methyl)-1H-pyrazol-4-yl)methyl) propiolamide] | ≤ 10 | ≤ 10 |  | 
6 | C#CC(=O)NCc1cnn(Cc2cc(OC)c3c(NS(=O)(=O)c4ccccc4C(=O)O)noc3c2)c1 [Synthetic Example 37, 2-(N-(4-methoxy-6-((4-(propiolamidomethyl)-1H-pyrazol-1-yl)methyl)benzo[d]isoxazol-3-yl)sulfamoyl)benzoic acid] | ≤ 10 | ≤ 10 |  | 
7 | C=CS(=O)(=O)NCc1cnn(Cc2cc(OC)c3c(NS(=O)(=O)CC4CCCCC4)noc3c2)c1 [compound 6] | ≤ 10 | ≤ 10 |  | 
8 | C#CC(=O)N1Cc2cnn(Cc3cc(OC)c4c(NS(=O)(=O)CC5CCCCC5)noc4c3)c2C1 [Synthetic Example 30A, 1-cyclohexyl-N-(4-methoxy-6-((5-propioloyl-5,6-dihydropyrrolo[3,4-c]pyrazol-1(4H)-yl)methyl)benzo[d]isoxazol-3-yl)methanesulfonamide] | ≤ 10 | ≤ 10 |  | 
9 | C#CC(=O)N1Cc2cnn(Cc3cc(OC)c4c(NS(=O)(=O)c5ccccc5OC)noc4c3)c2C1 [Synthetic Example 26A, 2-methoxy-N-(4-methoxy-6-((5-propioloyl-5,6-dihydropyrrolo[3,4-c]pyrazol-1(4H)-yl)methyl)benzo[d]isoxazol-3-yl)benzenesulfonamide] | ≤ 10 | ≤ 10 |  | 
10 | C#CC(=O)NCc1cnn(Cc2cc(OC)c3c(NS(=O)(=O)c4ccccc4C(=O)OC)noc3c2)c1 [Synthetic Example 36, methyl 2-(N-(4-methoxy-6-((4-(propiolamidomethyl)-1H-pyrazol-1-yl)methyl)benzo[d]isoxazol-3-yl)sulfamoyl)benzoate] | ≤ 10 | ≤ 10 |  | 
11 | C=CS(=O)(=O)NCc1ccn(Cc2cc(OC)c3c(NS(=O)(=O)Cc4ccccc4)noc3c2)n1 [Synthetic Example 21, N-((1-((4-methoxy-3-((phenylmethyl)sulfonamido)benzo[d]isoxazol-6-yl)methyl)-1H-pyrazol-3-yl)methyl)ethenesulfonamide] | ≤ 10 | > 10 |  | 
12 | C#CC(=O)N1Cc2cnn(Cc3cc(OC)c4c(NS(=O)(=O)c5c(OC)cccc5OC)noc4c3)c2C1 [Synthetic Example 25A, 2,6-dimethoxy-N-(4-methoxy-6-((5-propioloyl-5,6-dihydropyrrolo[3,4-c]pyrazol-1(4H)-yl)methyl)benzo[d]isoxazol-3-yl)benzenesulfonamide] | ≤ 10 | ≤ 10 |  | 
13 | C=CS(=O)(=O)NCCCOCc1cc(OC)c2c(NS(=O)(=O)c3cc(CC)ccc3OC)noc2c1 [compound 90, 5-ethyl-2-methoxy-N-(4-methoxy-6-((3-(vinylsulfonamido)propoxy)methyl)benzo[d]isoxazol-3-yl)benzenesulfonamide] |  |  | ≤ 10 | 
14 | C#CC(=O)NCc1cnn(Cc2cc(OC)c3c(NS(=O)(=O)c4ccccc4C(=O)NC)noc3c2)c1 [compound 68, 2-(N-(4-methoxy-6-((4-(propiolamidomethyl)-1H-pyrazol-1-yl)methyl)benzo[d]isoxazol-3-yl)sulfamoyl)-N-methylbenzamide] | ≤ 10 |  |  | 
15 | C#CC(=O)N1CCCN(c2cnc(-c3cc(OC)c4c(NS(=O)(=O)c5cc(CC)ccc5OC)noc4c3)s2)CC1 [compound 104, 5-ethyl-2-methoxy-N-(4-methoxy-6-(5-(4-propioloyl-1,4-diazepan-1-yl)thiazol-2-yl)benzo[d]isoxazol-3-yl) benzenesulfonamide] |  |  | ≤ 10 | 
16 | C=CS(=O)(=O)NCc1ccn(Cc2cc(OC)c3c(NS(=O)(=O)CC4CCCCC4)noc3c2)n1 [Synthetic Example 24, N-((1-((3-((cyclohexylmethyl)sulfonamido)-4-methoxybenzo[d]isoxazol-6-yl)methyl)-1H-pyrazol-3-yl)methyl)ethenesulfonamide] | ≤ 10 |  |  | 
17 | C#CC(=O)N1CCN(c2cc(O)cc(-c3cc(OC)c4c(NS(=O)(=O)c5c(OC)cccc5OC)noc4c3)c2)CC1 [compound 115, N-(6-(3-hydroxy-5-(4-propioloylpiperazin-1-yl)phenyl)-4-methoxybenzo[d]isoxazol-3-yl)-2,6-dimethoxybenzenesulfonamide] |  |  | ≤ 10 | 
18 | COc1cc(Cn2cccn2)cc2c1c(NS(=O)(=O)c1ccccc1F)nn2C [compound 122, N-(6-((1H-pyrazol-1-yl)methyl)-4-methoxy-1-methyl-1H-indazol-3-yl)-2-fluorobenzenesulfonamide] |  |  |  | 20 to 50
19 | C=CC(=O)NCc1ccn(Cc2cc(OC)c3c(NS(=O)(=O)Cc4ccccc4)noc3c2)n1 [Synthetic Example 20, N-((1-((4-methoxy-3-((phenylmethyl)sulfonamido)benzo[d]isoxazol-6-yl)methyl)-1H-pyrazol-3-yl)methyl)acrylamide] | ≤ 10 | > 10 |  | 
20 | C=CS(=O)(=O)NCc1cnn(Cc2cc(OC)c3c(NS(=O)(=O)c4cc(CC)ccc4OC)noc3c2)c1 [compound 81, 5-ethyl-2-methoxy-N-(4-methoxy-6-((4-(vinylsulfonamidomethyl)-1H-pyrazol-1-yl)methyl)benzo[d]isoxazol-3-yl)benzenesulfonamide] |  |  | ≤ 10 | 
21 | C=CC(=O)NCc1cnn(Cc2cc(OC)c3c(NS(=O)(=O)c4ccccc4OC)noc3c2)c1 [Synthetic Example 51, N-((1-((4-methoxy-3-((2-methoxyphenyl)sulfonamido)benzo[d]isoxazol-6-yl)methyl)-1H-pyrazol-4-yl)methyl)acrylamide] | ≤ 10 |  |  | 
22 | C=CS(=O)(=O)NCc1ccn(Cc2cc(OC)c3c(NS(=O)(=O)c4c(OC)cccc4OC)noc3c2)n1 [Synthetic Example 19, 2,6-dimethoxy-N-(4-methoxy-6-((3-(vinylsulfonamidomethyl)-1H-pyrazol-1-yl)methyl)benzo[d]isoxazol-3-yl)benzenesulfonamide] | ≤ 10 |  |  | 
